{"source": "patent US20230365554A1", "about": "“SUBSTITUTED PYRROLO-PYRIDINONE DERIVATIVES AND THERAPEUTIC USES THEREOF” (The Broad Institute, Inc., priority 2020, published 2023)", "target": "wild-type Epidermal Growth Factor Receptor (EGFR) (Homo sapiens (Human), UniProt P00533)", "sequence (P00533 669-1210)": "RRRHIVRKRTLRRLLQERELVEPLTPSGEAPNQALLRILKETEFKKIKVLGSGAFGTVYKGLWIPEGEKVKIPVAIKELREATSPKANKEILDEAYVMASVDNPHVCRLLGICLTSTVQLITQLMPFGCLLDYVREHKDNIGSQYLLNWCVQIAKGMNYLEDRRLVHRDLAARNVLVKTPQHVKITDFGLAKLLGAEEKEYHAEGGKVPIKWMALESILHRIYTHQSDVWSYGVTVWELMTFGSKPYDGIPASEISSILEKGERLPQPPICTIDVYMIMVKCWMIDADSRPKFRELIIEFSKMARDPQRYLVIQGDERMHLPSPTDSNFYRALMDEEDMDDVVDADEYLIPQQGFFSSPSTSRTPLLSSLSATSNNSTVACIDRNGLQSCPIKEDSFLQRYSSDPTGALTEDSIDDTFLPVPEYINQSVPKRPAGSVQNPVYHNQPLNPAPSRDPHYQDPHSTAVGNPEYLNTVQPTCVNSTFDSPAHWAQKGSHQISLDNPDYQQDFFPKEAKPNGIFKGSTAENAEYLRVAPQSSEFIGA", "experiment": "WT-EGFR kinase assay (TR-FRET, 2 mM ATP)", "format": "biochemical", "details": "median or individual measurements, Table 3, read-out: EGFR Wildtyp-2mM ATP IC50 [mol/l] (median)", "excerpt": "Inhibitory activity of compounds of the present invention against wild-type Epidermal Growth Factor Receptor (EGFR) was quantified employing the TR-FRET based EGFR assay as described in the following paragraphs.\nRecombinant fusion protein of N-terminal Glutathion-S-Transferase (GST) and a fragment of human EGFR (amino acids R669 to A1210), expressed in Sf9 insect cells and purified via affinity chromatography using Glutathion Sepharose as described above, was used as kinase. As substrate for the kinase reaction the biotinylated peptide biotin-Ahx-AEEEEYFELVAKKK (C-terminus in amide form) was used which can be purchased e.g. form the company Biosynthan GmbH (Berlin-Buch, Germany).\nFor the assay 50 nl of a 100 fold concentrated solution of the test compound in DMSO was pipetted into either a black low volume 384 well microtiter plate or a black 1536 well microtiter plate (both Greiner Bio-One, Frickenhausen, Germany), 2 μL of a solution of EGFR in aqueous assay buffer [50 mM Hepes pH 7.0, 10 mM MgCl2, 1 mM dithiothreitol, 0.5 mM EGTA, 0.3 mM activated sodium ortho-vanadate, 0.005% (w/v) bovine serum albumin, 0.005% (v/v) Tween-20] were added and the mixture was incubated for 15 min at 22° C. to allow pre-binding of the test compounds to the enzyme before the start of the kinase reaction. Then the kinase reaction was started by the addition of 3 μL of a solution of adenosine-tri-phosphate (ATP, 3.33 mM=>final conc. in the 5 μL assay volume is 2 mM) and substrate (1.67 μM=>final conc. in the 5 μL assay volume is 1 μM) in assay buffer and the resulting mixture was incubated for a reaction time of 30 min at 22° C. The concentration of EGFR was adjusted depending of the activity of the enzyme lot and was chosen appropriate to have the assay in the linear range, typical concentration was 7.6 pg/μL. The reaction was stopped by the addition of 3 μL of a solution of HTRF detection reagents (83.3 nM streptavidine-XL665 [Cisbio Bioassays, Codolet, France] and 1.67 nM PT66-Tb-Cryptate, a terbium-cryptate labelled anti-phospho-tyrosine antibody from Cisbio Bioassays [instead of the PT66-Tb-cryptate PT66-Eu-Chelate from Perkin Elmer can also be used]) in an aqueous EDTA-solution (133.3 mM EDTA, 0.2% (w/v) bovine serum albumin in 50 mM HEPES pH 7.5).\nThe resulting mixture was incubated 1 h at 22° C. to allow the binding of the biotinylated phosphorylated peptide to the streptavidine-XL665 and the PT66-Tb-Cryptate. Subsequently the amount of phosphorylated substrate was evaluated by measurement of the resonance energy transfer from the PT66-Tb-Cryptate to the streptavidine-XL665. Therefore, the fluorescence emissions at 620 nm and 665 nm after excitation at 337 nm were measured in a HTRF reader, e.g. a Pherastar (BMG Labtechnologies, Offenburg, Germany) or a Viewlux (Perkin-Elmer). The ratio of the emissions at 665 nm and at […] was taken as the measure for the amount of phosphorylated substrate. The data were normalised (enzyme reaction without inhibitor=0% inhibition, all other assay components but no enzyme=100% inhibition).", "note": "Where “and” joins values, the source holds several entries; their conditions need not be identical. Identical values can stand only once."}
{"molecule": "Cn1cc(CC(F)F)c2[nH]c(-c3ccnc(NC(=O)Cc4ccc(F)cc4)c3)c(Nc3ccccc3)c2c1=O", "note": "[Example 45, N-{4-[3-anilino-7-(2,2-difluoroethyl)-5-methyl-4-oxo-4,5-dihydro-1H-pyrrolo[3,2-c]pyridin-2-yl]pyridin-2-yl}-2-(4-fluorophenyl)acetamide]", "values": [{"measurement": "IC50", "value": 0.15, "unit": "µM"}]}
{"molecule": "CN1CC(CC(F)(F)F)c2[nH]c(-c3ccnc(NC(=O)Cc4ccc(F)cc4)c3)c(Nc3ccccc3)c2C1=O", "note": "(single isomer, unassigned) [Example 16, N-{4-[3-anilino-5-methyl-4-oxo-7-(2,2,2-trifluoroethyl)-4,5,6,7-tetrahydro-1H-pyrrolo[3,2-c]pyridin-2-yl]pyridin-2-yl}-2-(4-fluorophenyl)acetamide]", "values": [{"measurement": "IC50", "value": 1.8, "unit": "µM"}]}
{"molecule": "CCc1c[nH]c(=O)c2c(Nc3ccccc3)c(-c3ccnc(NC(=O)C(CC(F)F)c4ccc(F)cc4)c3)[nH]c12", "note": "(racemic) [Example 5, N-[4-(3-anilino-7-ethyl-4-oxo-4,5-dihydro-1H-pyrrolo[3,2-c]pyridin-2-yl)pyridin-2-yl]-4,4-difluoro-2-(4-fluorophenyl)butanamide]", "values": [{"measurement": "IC50", "value": 7.3, "unit": "µM"}]}
{"molecule": "Cn1cc(CC(F)(F)F)c2[nH]c(-c3ccnc(NC(=O)Cc4ccc(F)cc4)c3)c(Nc3ccccc3)c2c1=O", "note": "[Example 34, N-{4-[3-anilino-5-methyl-4-oxo-7-(2,2,2-trifluoroethyl)-4,5-dihydro-1H-pyrrolo[3,2-c]pyridin-2-yl]pyridin-2-yl}-2-(4-fluorophenyl)acetamide]", "values": [{"measurement": "IC50", "value": 0.02, "unit": "µM"}]}
{"molecule": "CN1CC(CC(F)(F)F)c2[nH]c(-c3ccnc(NC(=O)Cc4ccc(F)cc4)c3)c(Nc3cscn3)c2C1=O", "note": "(single isomer, unassigned) [Example 48, 2-(4-fluorophenyl)-N-{4-[(7R or S)-5-methyl-4-oxo-3-(1,3-thiazol-4-ylamino)-7-(2,2,2-trifluoroethyl)-4,5,6,7-tetrahydro-1H-pyrrolo[3,2-c]pyridin-2-yl]pyridin-2-yl}acetamide]", "values": [{"measurement": "IC50", "value": "> 20", "unit": "µM"}]}
{"molecule": "Cn1ccc2[nH]c(-c3ccnc(NC(=O)C(CC(F)F)c4ccc(F)cc4)c3)c(Nc3ccccc3)c2c1=O", "note": "(single isomer, unassigned) [Example 30, N-[4-(3-anilino-5-methyl-4-oxo-4,5-dihydro-1H-pyrrolo[3,2-c]pyridin-2-yl)pyridin-2-yl]-4,4-difluoro-2-(4-fluorophenyl)butanamide]", "values": [{"measurement": "IC50", "value": "> 20 µM (2×) and 3.9 µM and 5.1 µM and 5.5 µM and 7.2 µM and 15 µM and 10 µM"}]}
{"molecule": "Cc1cn(C)c(=O)c2c(Nc3ccccc3)c(-c3ccnc(NC(=O)C(CC(F)F)c4ccc(F)cc4)c3)[nH]c12", "note": "(single isomer, unassigned) [Example 12, N-[4-(3-anilino-5,7-dimethyl-4-oxo-4,5-dihydro-1H-pyrrolo[3,2-c]pyridin-2-yl)pyridin-2-yl]-4,4-difluoro-2-(4-fluorophenyl)butanamide]", "values": [{"measurement": "IC50", "value": "> 20", "unit": "µM"}]}
{"molecule": "CN1CC(CC(F)(F)F)c2[nH]c(-c3ccnc(NC(=O)C(CC(F)F)c4ccc(F)cc4)c3)c(Nc3ccccc3)c2C1=O", "note": "(stereo not shown) [Example 17, N-{4-[3-anilino-5-methyl-4-oxo-7-(2,2,2-trifluoroethyl)-4,5,6,7-tetrahydro-1H-pyrrolo[3,2-c]pyridin-2-yl]pyridin-2-yl}-4,4-difluoro-2-(4-fluorophenyl)butanamide]", "values": [{"measurement": "IC50", "value": "> 20 µM and > 5.7 µM and 3.7 µM and 3.2 µM"}]}
{"molecule": "CN1CC(CC2CC2)c2[nH]c(-c3ccnc(NC(=O)Cc4ccc(F)cc4)c3)c(Nc3cscn3)c2C1=O", "note": "(single isomer, unassigned) [Example 51, N-{4-[(7R or S)-7-(cyclopropylmethyl)-5-methyl-4-oxo-3-(1,3-thiazol-4-ylamino)-4,5,6,7-tetrahydro-1H-pyrrolo[3,2-c]pyridin-2-yl]pyridin-2-yl}-2-(4-fluorophenyl)acetamide]", "values": [{"measurement": "IC50", "value": "17.2 µM and > 20 µM"}]}
{"molecule": "Cc1cn(C)c(=O)c2c(Nc3ccccc3)c(-c3ccnc(NC(=O)C(CC(F)F)c4ccc(F)cc4)c3)[nH]c12", "note": "(racemic) [Example 11, N-[4-(3-anilino-5,7-dimethyl-4-oxo-4,5-dihydro-1H-pyrrolo[3,2-c]pyridin-2-yl)pyridin-2-yl]-4,4-difluoro-2-(4-fluorophenyl)butanamide]", "values": [{"measurement": "IC50", "value": "> 20", "unit": "µM"}]}
{"molecule": "CCC1CNC(=O)c2c1[nH]c(-c1ccnc(NC(=O)C(CC(F)F)c3ccc(F)cc3)c1)c2Nc1ccccc1", "note": "(stereo not shown) [Example 4, N-{4-[3-anilino-7-ethyl-4-oxo-4,5,6,7-tetrahydro-1H-pyrrolo[3,2-c]pyridin-2-yl]pyridin-2-yl}-4,4-difluoro-2-(4-fluorophenyl)butanamide]", "values": [{"measurement": "IC50", "value": 1.2, "unit": "µM"}]}
{"molecule": "Cn1ccc2[nH]c(-c3ccnc(NC(=O)C(CC(F)F)c4ccc(F)cc4)c3)c(Nc3ccccc3)c2c1=O", "note": "(single isomer, unassigned) [Example 29, N-[4-(3-anilino-5-methyl-4-oxo-4,5-dihydro-1H-pyrrolo[3,2-c]pyridin-2-yl)pyridin-2-yl]-4,4-difluoro-2-(4-fluorophenyl)butanamide]", "values": [{"measurement": "IC50", "value": "> 20", "unit": "µM"}]}
{"molecule": "Cc1cn(C)c(=O)c2c(Nc3ccccc3)c(-c3ccnc(NC(=O)C(CC(F)F)c4ccc(F)cc4)c3)[nH]c12", "note": "(single isomer, unassigned) [Example 13, N-[4-(3-anilino-5,7-dimethyl-4-oxo-4,5-dihydro-1H-pyrrolo[3,2-c]pyridin-2-yl)pyridin-2-yl]-4,4-difluoro-2-(4-fluorophenyl)butanamide]", "values": [{"measurement": "IC50", "value": "> 20", "unit": "µM"}]}
{"molecule": "CN1CC(CC2CC2)c2[nH]c(-c3ccnc(NC(=O)Cc4ccc(F)cc4)c3)c(Nc3cscn3)c2C1=O", "note": "(single isomer, unassigned) [Example 50, N-{4-[(7R or S)-7-(cyclopropylmethyl)-5-methyl-4-oxo-3-(1,3-thiazol-4-ylamino)-4,5,6,7-tetrahydro-1H-pyrrolo[3,2-c]pyridin-2-yl]pyridin-2-yl}-2-(4-fluorophenyl)acetamide]", "values": [{"measurement": "IC50", "value": "> 20", "unit": "µM"}]}
{"molecule": "Cc1cn(C)c(=O)c2c(Nc3ccccc3)c(-c3ccnc(NC(=O)C(C)c4ccc(F)cc4)c3)[nH]c12", "note": "(single isomer, unassigned) [Example 40, N-[4-(3-anilino-5,7-dimethyl-4-oxo-4,5-dihydro-1H-pyrrolo[3,2-c]pyridin-2-yl)pyridin-2-yl]-2-(4-fluorophenyl)propanamide]", "values": [{"measurement": "IC50", "value": 17, "unit": "µM"}]}
{"molecule": "CN1CC(CC(F)(F)F)c2[nH]c(-c3ccnc(NC(=O)C(CC(F)F)c4ccc(F)cc4)c3)c(Nc3cscn3)c2C1=O", "note": "(single isomer, unassigned) [Example 53, (2R or S)-4,4-difluoro-2-(4-fluorophenyl)-N-{4-[(7R or S)-5-methyl-4-oxo-3-[(1,3-thiazol-4-yl)amino]-7-(2,2,2-trifluoroethyl)-4,5,6,7-tetrahydro-1H-pyrrolo[3,2-c]pyridin-2-yl]pyridin-2-yl}butanamide]", "values": [{"measurement": "IC50", "value": "> 20", "unit": "µM"}]}
{"molecule": "Cn1cc(CC(F)(F)F)c2[nH]c(-c3ccnc(NC(=O)C(CC(F)F)c4ccc(F)cc4)c3)c(Nc3ccccc3)c2c1=O", "note": "(single isomer, unassigned) [Example 36, N-{4-[3-anilino-5-methyl-4-oxo-7-(2,2,2-trifluoroethyl)-4,5-dihydro-1H-pyrrolo[3,2-c]pyridin-2-yl]pyridin-2-yl}-4,4-difluoro-2-(4-fluorophenyl)butanamide]", "values": [{"measurement": "IC50", "value": 1.1, "unit": "µM"}]}
{"molecule": "CC1CN(C)C(=O)c2c1[nH]c(-c1ccnc(NC(=O)Cc3ccc(F)cc3)c1)c2Nc1ccccc1", "note": "(single isomer, unassigned; (+)) [Example 8, (+)-N-{4-[3-anilino-5,7-dimethyl-4-oxo-4,5,6,7-tetrahydro-1H-pyrrolo[3,2-c]pyridin-2-yl]pyridin-2-yl}-2-(4-fluorophenyl)acetamide]", "values": [{"measurement": "IC50", "value": 3, "unit": "µM"}]}
{"molecule": "CN1CC(CC(F)F)c2[nH]c(-c3ccnc(NC(=O)Cc4ccc(F)cc4)c3)c(Nc3ccccc3)c2C1=O", "note": "(racemic) [Example 42, N-{4-[3-anilino-7-(2,2-difluoroethyl)-5-methyl-4-oxo-4,5,6,7-tetrahydro-1H-pyrrolo[3,2-c]pyridin-2-yl]pyridin-2-yl}-2-(4-fluorophenyl)acetamide]", "values": [{"measurement": "IC50", "value": 1.1, "unit": "µM"}]}
